Source: patent publication US20220160849A1, “CANCER VACCINE FORMULATION” (MIE UNIVERSITY, priority 2019, published 2022)

Tested on: mouse melanoma B16F10 cell line expressing TRP2, TRP1, and gp100
Assay: Mouse tumor growth test, mouse melanoma B16F10
Type: in vivo, C57BL/6 mouse
Method: A mouse fibrosarcoma CMS5a cell line expressing mERK2, a mouse colorectal cancer cell CT26 cell line expressing AH1 and gp70, or a mouse melanoma B16F10 cell line expressing TRP2, TRP1, and gp100 was subcutaneously transplanted. The CMS5a cell line and the CT26 cell line were each subcutaneously transplanted in an amount of 1×10^6 cultured cells/100 μL/individual to each BALB/c mouse (female: body weight: 15 to 25 g). The B16F10 cell line was subcutaneously transplanted in an amount of […] cultured cells/100 μL/individual to each C57BL/6 mouse (female; body weight: 15 to 25 g). Then, tumor volumes were measured over time.
Each sample of Table 17 was subcutaneously administered with the frequency described in Table 17 to the mouse melanoma B16F10-bearing mice prepared by the method described in Example 5 to conduct a mouse tumor growth test.
Each sample of Table 20 was subcutaneously administered with the frequency described in Table 20 to the mouse melanoma B16F10-bearing mice prepared by the method described in Example 5 to conduct a mouse tumor growth test.
Each sample of Table 21 was subcutaneously administered with the frequency described in Table 21 to the mouse melanoma B16F10-bearing mice prepared by the method described in Example 5 to conduct a mouse tumor growth test.
Each sample of Table 22 was subcutaneously administered with the frequency described in Table 22 to the mouse melanoma B16F10-bearing mice prepared by the method described in Example 5 to conduct a mouse tumor growth test.
Each sample of Table 23 was subcutaneously administered with the frequency described in Table 23 to the mouse melanoma B16F10-bearing mice prepared by the method described in Example 5 to conduct a mouse tumor growth test.

[1] = Example 7-4, FIG. 23, adjuvant (Sting 0.015 mg, R848 0.05 mg) with 99k HA-C6-Chol-42% / TRP2TRP1gp100-6Y 0.05 mg s.c. day 10, 14, 17, 20

Molecule	tumor growth suppressive effect (tumor volume) [1]	tumor growth suppressive effect (tumor volume) (Example 7-3, FIG. 22, adjuvant 0.05 mg with 99k HA-C6-Chol-42% / TRP2TRP1gp100-6Y 0.05 mg s.c. day 10, 14, 17, 21)
CCOCc1nc2c(N)nc3ccccc3c2n1CC(C)(C)O [R848]	high tumor growth suppressive effect	–
Nc1nc2c(ncn2C2OC3COP(=O)(S)OC4C(COP(=O)(S)OC2C3O)OC(n2cnc3c(N)ncnc32)C4O)c(=O)[nH]1 (stereo not drawn) [Sting, 2′3′-cGAM(PS)2(Rp/Sp)]	high tumor growth suppressive effect	–
polyIC	–	high tumor growth suppressive effect
